Data taken from US20080200431A1, “Heterocyclic Sulfonamide Derivatives as Inhibitors of Factor Xa” (ASTRAZENECA AB, priority 2005, published 2008).

Target: T1, human FXa (Homo sapiens, UniProt P00742)
T1 construct: FXa solution (human FXa, Haematologic Technologies Inc., Essec Junction, Vt., USA); purchased Haematologic Technologies Inc
Assay: Measurement of Factor Xa inhibition (chromogenic substrate S-2765 method)
Assay type: biochemical
Conditions: inhibition of Factor Xa activity, screen a), specimen results
Procedure: a) Measurement of Factor Xa Inhibition
The FXa inhibitor potency was measured with a chromogenic substrate method, in a Plato 3300 robotic microplate processor (Rosys AG, CH-8634 Hombrechtikon, Switzerland), using 96-well, half-volume microtiter plates (Costar, Cambridge, Mass., USA; Cat No 3690). Stock solutions of test substance in DMSO (72 μL), 10 mmol/L, alternatively 1 mmol/L were diluted serially 1:3 (24+48 μL) with DMSO to obtain ten different concentrations, which were analyzed as samples in the assay, together with controls and blanks. As control sample melagatran was analysed. The dilutions of each test substance were analyzed consecutively, row-wise on the microtiter plate, with wash-cycles between substances to avoid cross-contamination. […] The final assay concentrations were: test substance 0.0068-133, respectively 0.00068-13.3 μmol/L, S-2765 0.40 mmol/L (KM=0.25 mmol/L) and FXa […]. The linear absorbance increase at 405 nm during 40 min incubation at 37° C. was used for calculation of percent inhibition for the test samples, as compared to references without inhibitor and/or enzyme. […]

T1 sequence (P00742 235-488 limits assumed): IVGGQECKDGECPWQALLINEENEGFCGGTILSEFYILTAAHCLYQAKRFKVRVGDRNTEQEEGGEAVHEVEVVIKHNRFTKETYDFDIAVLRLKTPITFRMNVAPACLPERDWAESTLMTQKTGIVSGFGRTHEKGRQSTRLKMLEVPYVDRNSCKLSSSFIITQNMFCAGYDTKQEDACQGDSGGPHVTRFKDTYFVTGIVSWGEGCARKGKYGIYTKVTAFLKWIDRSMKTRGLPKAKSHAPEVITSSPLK
T1 sequence (P00742 41-179 partner limits assumed): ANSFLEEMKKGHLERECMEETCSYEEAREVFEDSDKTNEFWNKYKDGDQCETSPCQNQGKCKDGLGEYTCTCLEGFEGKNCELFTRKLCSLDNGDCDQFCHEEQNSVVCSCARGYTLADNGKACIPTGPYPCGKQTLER

Row | IC50 [nM] | Structure (SMILES)
1 | 4.8 | Cn1nc(N2CCC(C(=O)N3CCN(S(=O)(=O)c4ccc5c(Cl)c[nH]c5c4)C(O)C3)CC2)ccc1=O (centres unmarked) [Example 3, 6-{4-[4-(3-Chloro-1H-indole-6-sulfonyl)-3-hydroxy-piperazine-1-carbonyl]-piperidin-1-yl}-2-methyl-2H-pyridazin-3-one]
2 | 98 | Cc1cc(N2CCC(C(=O)N3CCN(S(=O)(=O)c4ccc5c(Cl)c[nH]c5c4)CC3)CC2)c[nH]c1=O [Example 6, 4-[4-(3-Chloro-1H-indole-6-sulfonyl)-piperazine-1-carbonyl]-5′-methyl-3,4,5,6-tetrahydro-2H,1′H-[1,3′]bipyridinyl-6′-one]
